Measured values published in patent publication US6346549B1, “Treatment of pharmacology of drug misuse and other addictive disorders” (Knoll Pharmaceutical Company, priority 1999, dated 2002).

Tests used:
[1] = molecular target: [3H]Dopamine reuptake in rat brain tissue (Rattus norvegicus, UniProt P23977); test: biochemical
[2] = molecular target: T1, [3H]Noradenaline reuptake in rat brain tissue (Rattus norvegicus); test: in vitro [3H]noradrenaline reuptake inhibition in rat brain tissue; type: biochemical; conditions: monoamine reuptake inhibition, means of ≧3 separate determinations
T1 construct: in rat brain tissue; from tissue; host or cells: rat brain tissue
T1 sequence (Q63380 1-617): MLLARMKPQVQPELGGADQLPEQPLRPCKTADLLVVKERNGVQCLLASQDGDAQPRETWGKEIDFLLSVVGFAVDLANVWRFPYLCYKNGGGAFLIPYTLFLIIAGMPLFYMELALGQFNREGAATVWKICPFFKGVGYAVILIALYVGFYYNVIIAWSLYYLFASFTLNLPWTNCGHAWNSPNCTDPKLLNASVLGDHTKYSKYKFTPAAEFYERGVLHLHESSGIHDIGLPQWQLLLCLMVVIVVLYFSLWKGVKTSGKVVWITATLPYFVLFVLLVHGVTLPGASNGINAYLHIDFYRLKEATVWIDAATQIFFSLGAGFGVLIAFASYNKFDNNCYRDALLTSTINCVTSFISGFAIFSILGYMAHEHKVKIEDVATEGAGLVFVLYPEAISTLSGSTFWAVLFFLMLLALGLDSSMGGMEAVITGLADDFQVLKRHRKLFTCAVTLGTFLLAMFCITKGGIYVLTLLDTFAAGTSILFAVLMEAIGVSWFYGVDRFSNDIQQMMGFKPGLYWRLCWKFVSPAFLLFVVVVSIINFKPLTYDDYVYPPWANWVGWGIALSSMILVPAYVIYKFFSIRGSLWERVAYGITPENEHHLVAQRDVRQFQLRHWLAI

Chain of [3H]Dopamine reuptake in rat brain tissue (P23977 whole entry): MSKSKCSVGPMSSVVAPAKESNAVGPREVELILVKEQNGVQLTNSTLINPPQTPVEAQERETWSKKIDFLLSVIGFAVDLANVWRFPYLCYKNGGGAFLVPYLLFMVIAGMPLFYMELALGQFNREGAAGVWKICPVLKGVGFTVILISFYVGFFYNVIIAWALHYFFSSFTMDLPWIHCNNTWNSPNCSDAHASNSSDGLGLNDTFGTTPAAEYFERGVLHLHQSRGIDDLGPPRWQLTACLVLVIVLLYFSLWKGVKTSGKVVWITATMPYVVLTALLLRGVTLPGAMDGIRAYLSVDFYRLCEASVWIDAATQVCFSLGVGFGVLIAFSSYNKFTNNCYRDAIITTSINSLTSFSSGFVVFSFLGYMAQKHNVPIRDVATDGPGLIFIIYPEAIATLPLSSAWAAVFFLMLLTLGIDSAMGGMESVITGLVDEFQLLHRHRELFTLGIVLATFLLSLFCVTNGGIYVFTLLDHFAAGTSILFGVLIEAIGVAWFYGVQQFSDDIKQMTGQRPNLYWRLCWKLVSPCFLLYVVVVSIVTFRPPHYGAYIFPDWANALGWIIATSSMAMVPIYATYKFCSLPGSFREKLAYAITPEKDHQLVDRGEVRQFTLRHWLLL

## CC(NC(C)(C)C)C(=O)c1cccc(Cl)c1 (centres unmarked) [Bupropion]
[1]
  Ki: 0.409 µM
[2]
  Ki: 2590 nM
